Test results taken from PMC2846458 (Nature medicine, 2008).
Changes are numbered by the printed parent chain.

What was measured:
[1] = tested on: Ad.Cre-injected conditional caALK2–transgenic mice; assay: Ectopic ossification in Ad.Cre-injected conditional caALK2-transgenic mice; assay type: in vivo, mouse
[2] = Tolerability of treatment in mice
[3] = tested on: TGF-β signaling; assay: Immunoblot of TGF-β signaling in PASMCs; assay type: cell-based; conditions: Mus musculus, PASMC, read-out: IC50 for TGF-β signaling
[4] = biological target: T1, ALK2^R206H (Homo sapiens, UniProt Q04771, R206H); assay: Id1 promoter activity; assay type: cell-based
T1 sequence (Q04771 21-509 R206H): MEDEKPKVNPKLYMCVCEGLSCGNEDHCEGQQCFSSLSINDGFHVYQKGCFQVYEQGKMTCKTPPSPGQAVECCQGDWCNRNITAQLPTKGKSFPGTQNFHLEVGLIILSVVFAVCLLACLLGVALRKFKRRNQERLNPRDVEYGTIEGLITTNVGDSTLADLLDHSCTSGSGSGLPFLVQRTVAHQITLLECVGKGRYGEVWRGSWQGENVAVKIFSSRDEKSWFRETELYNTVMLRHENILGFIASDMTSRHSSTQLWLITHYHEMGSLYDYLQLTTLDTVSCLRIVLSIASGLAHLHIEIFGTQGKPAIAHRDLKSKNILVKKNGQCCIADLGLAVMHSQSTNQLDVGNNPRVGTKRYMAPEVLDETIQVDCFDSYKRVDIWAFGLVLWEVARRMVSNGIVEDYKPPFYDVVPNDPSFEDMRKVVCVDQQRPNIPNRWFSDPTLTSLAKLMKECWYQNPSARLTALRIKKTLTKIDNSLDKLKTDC

[5] = biological target: T2, ALK2^Q207D (Homo sapiens, UniProt Q04771, Q207D); assay: Id1 promoter activity; assay type: cell-based
T2 sequence (Q04771 21-509 Q207D): T1 sequence (Q04771 21-509 R206H) with H186R, Q187D

[6] = tested on: C2C12 cells; assay: BMP4-induced alkaline phosphatase activity; assay type: cell-based; conditions: 100 nM, BMP4 10 ng ml^-1, even when administered 12 h after BMP stimulation
[7] = 3 mg kg^-1 i.p. every 12 h, lesions attenuated in the remainder

Row | SMILES | ectopic calcifications and immobility at P30 ([1]; 10 mg kg^-1 d^-1 i.p. starting 1 d after Ad.Cre at P7, versus vehicle) | effect on weight and growth ([2]; wild-type or mutant mice, during drug administration) | IC50 [3] [nM] | effect on transcriptional activity induced by ALK2^R206H [4] | effect on transcriptional activity induced by ALK2^Q207D [5] | effect on induction of alkaline phosphatase activity by BMP4 [6] | endochondral bone in hindlimbs (histology) ([1]; 3 mg kg^-1 i.p. every 12 h) | phosphorylated Smad1/5/8 and Runx2 staining in left gastrocnemius ([1]; 3 mg kg^-1 i.p. every 12 h, P11) | passive range of motion in the ankle joint ([1]; 3 mg kg^-1 i.p. every 12 h, P15 and P30, versus vehicle) | fraction of mice in which ectopic bone was prevented at P30 [1, 7] | fraction of mice in which ectopic bone was prevented at P60 [1, 7] | radiographic lesions at P15 ([1]; 3 mg kg^-1 i.p. every 12 h after Ad.Cre on P7) | fractures, osteopenia, skeletal abnormalities ([2]; 3 mg kg^-1 i.p. every 12 h, up to P60)
1 | C[C@@H]1C[C@H]2[C@@H]3CCC4=CC(=O)C=C[C@]4(C)[C@@]3(F)[C@@H](O)C[C@]2(C)[C@@]1(O)C(=O)CO [dexamethasone, reference compound] | markedly reduced | severely impaired weight gain |  |  |  |  |  |  |  |  |  |  | 
2 | c1ccc2c(-c3cnn4cc(-c5ccc(N6CCNCC6)cc5)cnc34)ccnc2c1 [LDN-193189, 4-[6-(4-piperazin-1-ylphenyl)pyrazolo[1,5-a]pyrimidin-3-yl]quinoline] |  |  | ≥ 1000 | blocked the transcriptional activity | blocked the transcriptional activity | inhibited the induction of alkaline phosphatase activity | substantially less endochondral bone | diminished | significant rescue of function | approximately two-thirds | one-third | prevented radiographic lesions at P15 in all mice examined | without inducing fractures, osteopenia or skeletal abnormalities
